Target: T1, Mouse TMEM16A (Mus musculus, UniProt Q8BHY3)
T1 construct: expressed in transfected cells; host or cells: HEK-293T
T1 sequence (Q8BHY3 1-960): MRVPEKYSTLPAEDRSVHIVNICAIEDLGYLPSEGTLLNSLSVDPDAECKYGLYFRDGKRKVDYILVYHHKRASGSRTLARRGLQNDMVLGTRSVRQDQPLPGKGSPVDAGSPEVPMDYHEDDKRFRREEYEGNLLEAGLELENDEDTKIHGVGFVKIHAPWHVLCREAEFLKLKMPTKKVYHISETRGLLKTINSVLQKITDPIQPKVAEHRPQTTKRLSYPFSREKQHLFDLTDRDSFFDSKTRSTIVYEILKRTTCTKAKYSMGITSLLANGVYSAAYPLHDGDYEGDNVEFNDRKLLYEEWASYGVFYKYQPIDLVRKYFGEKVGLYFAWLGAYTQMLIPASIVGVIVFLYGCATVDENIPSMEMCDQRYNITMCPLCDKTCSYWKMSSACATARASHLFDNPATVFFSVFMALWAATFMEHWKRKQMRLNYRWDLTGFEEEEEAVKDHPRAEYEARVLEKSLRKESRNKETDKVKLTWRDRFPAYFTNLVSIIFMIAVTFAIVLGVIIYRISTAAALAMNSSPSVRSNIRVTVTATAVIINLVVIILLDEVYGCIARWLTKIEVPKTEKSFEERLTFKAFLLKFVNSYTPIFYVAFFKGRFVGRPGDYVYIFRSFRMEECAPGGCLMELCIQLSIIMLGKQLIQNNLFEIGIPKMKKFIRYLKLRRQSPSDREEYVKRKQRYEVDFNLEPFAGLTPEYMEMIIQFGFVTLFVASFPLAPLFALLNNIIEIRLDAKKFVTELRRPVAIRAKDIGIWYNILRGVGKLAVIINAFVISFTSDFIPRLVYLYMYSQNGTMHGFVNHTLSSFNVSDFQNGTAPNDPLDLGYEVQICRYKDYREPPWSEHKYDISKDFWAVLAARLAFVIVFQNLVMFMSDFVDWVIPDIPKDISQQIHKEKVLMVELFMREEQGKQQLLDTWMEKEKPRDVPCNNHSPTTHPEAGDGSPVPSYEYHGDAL
Assay: Whole-cell TMEM16A current versus Vm relationship with extracellular A9C, 300 nM [Ca2+]i
Type: cell-based
Protocol: Mouse TMEM16A (GenBank NM_178642) subcloned into pcDNA3.1 vector was used in this study (Alexander et al., 2013). HEK‐293T cells were cultured as previously described (Smith et al., 2013) and transfected with 0.5–1 μg of TMEM16A and 0.1 μg of CD8 constructs using Fugene HD (Promega, Madison, WI, USA) according to the manufacturer's instructions. Cells were used ~12–36 h after transfection. Transfected cells were visualized using the anti‐CD8 antibody‐coated beads method (Jurman et al., 1994).
TMEM16A currents were measured with the whole‐cell or inside‐out patch configuration of the patch‐clamp technique as detailed in the Supporting Information. The exchange of solutions was achieved by using a local perfusion system consisting of eight tubes of 1.2 mm diameter in which the tip of the patch pipette was inserted. In some experiments, ultra‐rapid (<50 ms) changes in A9C concentration ([A9C]) (‘concentration jumps’) were achieved using a computer‐controlled perfusion system (Warner Instruments, Hamden, CT, USA).
The intracellular solution contained (mM) 130 CsCl, 10 EGTA, 1 MgCl2, 10 HEPES and 8 CaCl2 to obtain ~300 nM of [Ca^2+]i; pH was adjusted to 7.3 with NaOH. The intracellular solutions containing ~600 nM, ~1000 nM and ~12.5 μM [Ca^2+]i were obtained by replacing EGTA with equimolar H‐EDTA and by adding 2.1, 3.1 and 7.8 mM CaCl2 respectively. The extracellular solution contained (mM) 150 NaCl, 1 CaCl2, 1 MgCl2, 10 glucose, 10 D‐mannitol and 10 HEPES; pH was adjusted to 7.4 with NaOH. […] A9C was dissolved in DMSO (stock concentration, 300 mM); thus, the final concentration of DMSO was ≤1%. Aliquots of the stock solution were kept at −20° and used within 5 days.
Current versus V m relationships were constructed by measuring currents in response to 1 s V m steps (test pulses) from −100 to +100 mV in 40 mV increments (unless stated otherwise) after a 1 s V m step to +70 mV (pre‐pulse). Pulses were elicited every 2 s from a holding V m of 0 mV. Steady‐state currents were measured at the end of the test pulses. As detailed in the Results, in the presence of 300 nM [Ca^2+]i and extracellular A9C, the test‐pulse currents reached a peak within the first ~50 ms of the test pulse. These peak currents were also measured and plotted against the V m of the test pulse. Current density was obtained by dividing the current amplitude for the cell capacitance.
For determination of the current reversal potential (E rev), instantaneous currents were estimated from extrapolation of single exponential fits of the test‐pulse currents to the beginning of each test pulse. These instantaneous current values were plotted as a function of the V m, and the relative chord conductance was measured between an interval of ±20 m V around the E rev (Tammaro et al., 2005; Adomaviciene et al., 2013).
The project began by examining if this also applies to cloned TMEM16A channels. In the presence of increasing extracellular [A9C] ([A9C]ext), a pre‐pulse of +70 mV was used to open TMEM16A channels followed by a series of test pulses (Figure 1).
Ta C.M., Adomaviciene A., Rorsman N., Garnett H. and Tammaro P.
SUPPLEMENTARY INFORMATION
TMEM16A currents were measured with the whole-cell or inside-out configuration of
the patch-clamp technique using an Axon 200B amplifier (Molecular Devices, USA)
controlled with GE-pulse software (http://users.ge.ibf.cnr.it/pusch/programs-mik.htm).
Currents were filtered at 2-5 kHz and sampled at 10 kHz, unless stated otherwise. […]

peak current at −100 mV relative to control (3000 μM A9C extracellular): ~ 13 folds
steady-state current decrease (3000 μM [A9C]ext, Vm > 60 mV, whole-cell): up to approximately threefold
E rev of TMEM16A currents (3000 μM [A9C]ext, control 4.5 ± 1.4 mV): 8.3 ± 1.4 mV
steady-state current increase ([A9C]ext ≤ 100 μM, Vm > 60 mV, whole-cell): ~ 1.3 folds
steady-state current change at Vm ≤ 60 mV (any [A9C]ext tested (30-3000 μM)): did not change substantially
Structure (SMILES): O=C(O)c1c2ccccc2cc2ccccc12 [A9C, Anthracene‐9‐carboxylic acid]

From PMC4728427, “Mechanism of allosteric activation of TMEM16A/ANO1 channels by a commonly used chloride channel blocker” (British Journal of Pharmacology, 2016)
